Molecules are shown by their SMILES.

Results on 55 compounds are retold here after patent US20140349970A1 (ABBVIE INC., priority 2009, published 2014).

In the assay the target is T1, Syk catalytic domain (aa 356-635 with a C-terminal His-tag) (Homo sapiens, UniProt P43405).
T1 construct: His-tag (C); made in house
Kind of assay: In vitro Syk kinase activity measured by trFRET, Syk catalytic domain. It is filed as biochemical. The settings on record: Syk catalytic domain (aa 356-635), trFRET, 0.001 mM ATP. How it is done: In Vitro Syk Kinase Activity Measured by Time-Resolved Fluorescence Resonance Energy Transfer (trFRET)
0.14 nM purified Syk catalytic domain (aa 356-635 with a C-terminal His-tag purified in-house by immobilized metal ion affinity chromatography) was mixed with 0.2 μM peptide substrate (biotin-TYR1, Sequence: Biotin-(Ahx)-GAEEEIYAAFFA-COOH) at varying inhibitor concentrations in reaction buffer: 50 mM MOPSO pH 6.5, 10 mM MgCl2, 2 mM MnCl2, 2.5 mM DTT, 0.01% BSA, 0.1 mM Na3VO4 and 0.001 mM ATP. After about 60 min incubation at rt, the reaction was quenched by addition of EDTA (final concentration: 100 mM) and developed by addition of revelation reagents (final approximate concentrations: 30 mM HEPES pH 7.0, 0.06% BSA, 0.006% Tween-20, 0.24 M KF, 80 ng/mL PT66K (europium labeled anti-phosphotyrosine antibody cat #61T66KLB Cisbio, Bedford, Mass.) and 0.6 μg/mL SAXL (Phycolink streptavidin-allophycocyanin acceptor, cat #PJ255, Prozyme, San Leandro, Calif.). The developed reaction was incubated in the dark either at about 4° C. for about 14 h or for about 60 min at rt, then read via a time-resolved fluorescence detector (Rubystar, BMG) using a 337 nm laser for excitation and monitoring emission wavelengths at 665 nm. Within the linear range of the assay, the observed signal at 665 nm was directly related to phosphorylated product and can be used to calculate the IC50 values.
MOPSO buffer contains: 50 mM MOPSO pH 6.5, 10 mM MgCl2, 2 mM MnCl2, 2.5 mM DTT, 0.01% BSA, and 0.1 mM Na3VO4 HEPES buffer contains: 50 mM HEPES pH 7.1, 2.5 mM DTT, 10 mM MgCl2, 2 mM MnCl2, 0.01% BSA, and 0.1 mM Na3VO4 MOPS buffer contains: 20 mM MOPS pH 7.2, 10 mM MgCl2, 5 mM EGTA, 5 mM Beta-phosphoglycerol, 1 mM Na3VO4, 0.01% Triton-X-100 and 1 mM DTT
Biotin-TYR1-peptide sequence: Biotin-(Ahx)-GAEEEIYAAFFA-COOH Biotin-TYR2-peptide sequence: Biotin-(Ahx)-AEEEYFFLFA-amide KinEASE 51 peptides were purchased from Cisbio (cat #62ST0PEB, Bedford, Mass.)
PT66K was purchased from Cisbio (cat #61T66KLB, Bedford, Mass.) EuSTK was purchased from Cisbio (cat #62ST0PEB, Bedford, Mass.) SAXL was purchased from Prozyme (cat #PJ25S, San Leandro, Calif.) Human T-Blasts IL-2 pSTAT5 Cellular Assay
Regarding `COc1ccc2c(c1)c(-c1cc3c(ncc4cnc(C)n43)n1COP(=O)(O)O)cn2C` [Example 10, (7-(5-Methoxy-1-methyl-1H-indol-3-yl)-1-methyl-6H-imidazo[1,5-a]pyrrolo[2,3-e]pyrazin-6-yl) methyl disodium phosphate], the IC50 (in general, the concentration needed to halve the response being measured) is 1000 to 10000 nM.

The compound `Cc1nc(-c2ccc(C(C)(C)O)cc2)c2cnc3[nH]c(Br)cc3n12` [Example 11, 2-(4-(7-Bromo-1-methyl-6H-imidazo[1,5-a]pyrrolo[2,3-e]pyrazin-3-yl)phenyl)propan-2-ol] had an IC50 of 100 to 1000 nM.

As to `COC(=O)Cn1cc(-c2nc(C)n3c2cnc2[nH]ccc23)cn1` [Example 12, Methyl 2-(4-(1-methyl-6H-imidazo[1,5-a]pyrrolo[2,3-e]pyrazin-3-yl)-1H-pyrazol-1-yl)acetate], the IC50 fell in the range of 100 to 1000 nM.

`CN(C)CC(=O)NCc1cccc(-c2cc3c(ncc4cnn(C)c43)[nH]2)c1` [J.1.1.1] had an IC50 of 100 to 1000 nM.

As for `COCCC(=O)NCc1cccc(-c2cc3c(ncc4cnn(C)c43)[nH]2)c1` [J.1.1.2], the IC50 lay within 100 to 1000 nM.

`Cn1ncc2cnc3[nH]c(-c4cccc(CNC(=O)CCN5CCOCC5)c4)cc3c21` [J.1.1.3] came in with an IC50 of 100 to 1000 nM.

With `CCCCC(=O)NCc1cccc(-c2cc3c(ncc4cnn(C)c43)[nH]2)c1` [J.1.1.4], the IC50 was in the range of 100 to 1000 nM.

As for `COc1ccc(-c2nc(C(=O)NCCO)n3c2cnc2[nH]ccc23)cc1` [J.1.2.1], the IC50 is < 100 nM.

`Cc1nc(-c2ccc(C3(O)CCN(C(=O)CC#N)CC3)cc2)c2cnc3[nH]ccc3n12` [J.1.3.1]: the IC50 was < 100 nM.

As for `CN(C)C(=O)c1ccc2c(-c3cc4c(ncc5cnn(C)c54)[nH]3)cn(C)c2c1` [J.1.4.1], the half-inhibitory concentration (IC50) was < 100 nM.

For the compound `Cn1cc(-c2cc3c(ncc4cnn(C)c43)[nH]2)c2ccc(C(=O)NCC(C)(C)CO)cc21` [J.1.4.2], the IC50 was < 100 nM.

As for `Cn1cc(-c2cc3c(ncc4cnn(C)c43)[nH]2)c2ccc(C(=O)NC(C)(C)CO)cc21` [J.1.4.3], the IC50 was < 100 nM.

With `CC(=O)c1ccc(-c2cc3c(ncc4cnc(C(=O)N5CCCC5)n43)[nH]2)cc1` [J.1.5.1], the IC50 was < 100 nM.

On to `CC(=O)c1ccc(-c2cc3c(ncc4cnc(C(=O)NCCN(C)C)n43)[nH]2)cc1` [J.1.5.2], for which the IC50 was in the range of 100 to 1000 nM.

In the case of `CCCNC(=O)c1ccc(-c2nc(C)n3c2cnc2[nH]ccc23)cc1Cl` [J.1.6.1], the IC50 lay in the range of 100 to 1000 nM.

As for `CCCNC(=O)c1cc(-c2nc(C)n3c2cnc2[nH]ccc23)ccc1OC` [J.1.7.1], the IC50 was 100 to 1000 nM.

On to `COc1ccc(-c2nc(C)n3c2cnc2[nH]ccc23)cc1C(=O)NCCN(C)C` [J.1.7.2], for which the IC50 was in the range of 100 to 1000 nM.

`COc1ccc(-c2nc(C)n3c2cnc2[nH]ccc23)cc1C(=O)NCCO` [J.1.7.3] registered an IC50 of 100 to 1000 nM.

`COc1ccc(-c2nc(C)n3c2cnc2[nH]ccc23)cc1C(N)=O` [J.1.7.4] showed an IC50 of 100 to 1000 nM.

Consider `Cn1cc(-c2cc3c(ncc4cnn(C)c43)[nH]2)c2cc(C(=O)NCCN3CCOCC3)ccc21` [J.1.8.1], for which the IC50 is < 100 nM.

For `CN(C)CCNC(=O)c1ccc2c(c1)c(-c1cc3c(ncc4cnn(C)c43)[nH]1)cn2C` [J.1.8.2], the IC50 was in the range of 100 to 1000 nM.

For `Cn1cc(-c2cc3c(ncc4cnn(C)c43)[nH]2)c2cc(C(=O)N3CCC(CO)CC3)ccc21` [J.1.8.3], the IC50 was < 100 nM.

For the compound `CN(C)C(=O)c1ccc2c(c1)c(-c1cc3c(ncc4cnn(C)c43)[nH]1)cn2C` [J.1.8.4], the IC50 is < 100 nM.

As to `CN(CC(C)(C)CO)C(=O)c1ccc2c(c1)c(-c1cc3c(ncc4cnn(C)c43)[nH]1)cn2C` [J.1.8.5], the 50% inhibitory concentration (IC50) is < 100 nM.

For `CN1CCN(C(=O)CNC(=O)c2ccc3c(c2)c(-c2cc4c(ncc5cnn(C)c54)[nH]2)cn3C)CC1` [J.1.8.6], the IC50 was < 100 nM.

With `Cn1cc(-c2cc3c(ncc4cnn(C)c43)[nH]2)c2cc(C(=O)NCCO)ccc21` [J.1.8.7], the IC50 was < 100 nM.

`COc1ccc2c(c1)c(-c1cc3c(ncc4cnc([C@@H]5CCN(C(C)=O)C5)n43)[nH]1)cn2C` [J.2.1.1] displayed an IC50 of 100 to 1000 nM.

For `CC(=O)N[C@H]1CC[C@@H](c2ncc3cnc4[nH]c(-c5cccc(S(C)(=O)=O)c5)cc4n23)C1` [J.2.1.2], the IC50 was 100 to 1000 nM.

Compound `CC(=O)NCCCc1ncc2cnc3[nH]c(-c4cnn(C)c4)cc3n12` [J.2.1.3] displayed an IC50 of 100 to 1000 nM.

`CC(=O)NC(C)(C)c1ccc(-c2nc(C3CCCCC3)n3c2cnc2[nH]ccc23)cc1` [J.2.1.4]: the IC50 is < 100 nM.

Turning to `CC(=O)N1CC=C(c2ncn3c2cnc2[nH]ccc23)CC1` [J.2.1.5], the half-inhibitory concentration (IC50) was in the range of 1000 to 10000 nM.

With `CC(=O)N1CCC(O)(c2ccc(-c3nc(C)n4c3cnc3[nH]ccc34)cc2)CC1` [J.2.1.6], the IC50 was < 100 nM.

Turning to `COc1ccc(-c2nc([C@H]3CCC[C@@H](NC(C)=O)C3)n3c2cnc2[nH]ccc23)cc1` [J.2.1.7], the IC50 was in the range of 100 to 1000 nM.

As for `CC(=O)NCc1nc(-c2ccc(C(C)(C)O)cc2)c2cnc3[nH]ccc3n12` [J.2.1.8], the 50% inhibitory concentration (IC50) lay in the range of 100 to 1000 nM.

With `COc1ccc2c(c1)c(-c1cc3c(ncc4cnc([C@@H]5CC[C@H](NC(C)=O)C5)n43)[nH]1)cn2C` [J.2.1.9], the IC50 is < 100 nM.

`Cn1cc(-c2cc3c(ncc4cnn(C)c43)[nH]2)c2cc(C(=O)NC(C)(C)CO)ccc21` [J.2.2.1]: the half-maximal inhibitory concentration (IC50) is < 100 nM.

Turning to `Cn1cc(-c2cc3c(ncc4cnn(C)c43)[nH]2)c2cc(C(=O)NCC(C)(C)CO)ccc21` [J.2.2.2], the IC50 was < 100 nM.

`CCOCCCNC(=O)Cn1cccc1-c1cc2c(ncc3cnn(C)c32)[nH]1` [J.2.3.1] had a half-inhibitory concentration (IC50) of 1000 to 10000 nM.

With `Cn1ncc2cnc3[nH]c(-c4cccn4CC(=O)N4CCOCC4)cc3c21` [J.2.3.2], the IC50 was in the range of 1000 to 10000 nM.

Turning to `CN1CCN(C(=O)Cn2cccc2-c2cc3c(ncc4cnn(C)c43)[nH]2)CC1` [J.2.3.3], the IC50 was > 10000 nM.

Take `Cn1ncc2cnc3[nH]c(-c4cccc(CNS(C)(=O)=O)c4)cc3c21` [K.1, N-(3-(1-Methyl-1,6-dihydropyrazolo[3,4-d]pyrrolo[2,3-b]pyridin-7-yl)benzyl)methanesulfonamide]: the IC50 was in the range of 100 to 1000 nM.

Turning to `COc1ccc2c(c1)c(-c1cc3c(ncc4cnc([C@@H]5CC[C@H](NS(=O)(=O)C6CC6)C5)n43)[nH]1)cn2C` [K.1.1], the IC50 was < 100 nM.

Regarding `COc1ccc2c(c1)c(-c1cc3c(ncc4cnc(C(F)(F)F)n43)[nH]1)cn2C` [L.1.1, 7-(5-Methoxy-1-methyl-1H-indol-3-yl)-1-(trifluoromethyl)-6H-imidazo[1,5-a]pyrrolo[2,3-e]pyrazine], the IC50 lay in the range of 100 to 1000 nM.

For `COc1ccc2c(c1)c(-c1cc3c(ncc4cnc(C5CCCOC5)n43)[nH]1)cn2C` (stereo not shown) [M.1, 7-(5-Methoxy-1-methyl-1H-indol-3-yl)-1-(tetrahydro-2H-pyran-3-yl)-6H-imidazo[1,5-a]pyrrolo[2,3-e]pyrazine], the IC50 was < 100 nM.

Take `COc1ccc2c(c1)c(-c1cc3c(ncc4cnc(CC(F)(F)F)n43)[nH]1)cn2C` [M.1.1]: the half-maximal inhibitory concentration (IC50) is < 100 nM.

Consider `CS(=O)(=O)c1cccc(-c2cc3c(ncc4cnc(C(F)(F)F)n43)[nH]2)c1` [M.1.2], for which the IC50 lay in the range of 100 to 1000 nM.

For `Cc1ncc2cnc3[nH]c(-c4cccc(S(C)(=O)=O)c4)cc3n12` [M.1.3], the IC50 was < 100 nM.

`CS(=O)(=O)c1cccc(-c2cc3c(ncc4cnc(CCCNC(=O)C(F)(F)F)n43)[nH]2)c1` [M.1.4]: the IC50 lay within 100 to 1000 nM.

In the case of `CS(=O)(=O)c1cccc(-c2cc3c(ncc4cnc(C5CCCOC5)n43)[nH]2)c1` (stereo not shown) [M.1.5], the IC50 lay within 100 to 1000 nM.

`CS(=O)(=O)c1cccc(-c2cc3c(ncc4cnc(C5CCC(O)C5)n43)[nH]2)c1` (stereo not shown) [M.1.6] yielded a concentration for half-maximal inhibition (IC50) of 100 to 1000 nM.

Consider `COc1ccc2c(c1)c(-c1cc3c(ncc4cnc(CCCO)n43)[nH]1)cn2C` [M.1.7], for which the IC50 was < 100 nM.

With `COc1ccc2c(c1)c(-c1cc3c(ncc4cnc(N(C)C)n43)[nH]1)cn2C` [M.1.8], the IC50 was < 100 nM.

In turn, `CCc1c(-c2ccc(C(C)(C)O)cc2)[nH]c2ncc3cnc(C)n3c12` [M.1.9] returned an IC50 of 100 to 1000 nM.

On to `COc1ccc2c(c1)c(-c1cc3c(ncc4cnc(C5CCOCC5)n43)[nH]1)cn2C` [M.1.10], for which the IC50 is < 100 nM.

The compound `Cc1ncc2cnc3[nH]c(-c4cccc(C(=O)NCCN5CCOCC5)c4)cc3n12` [M.1.11] gave an IC50 of 100 to 1000 nM.
